The test addresses recombinant DYRK1A kinase (Homo sapiens (Human), UniProt Q13627). The test can be described thus: DYRK1A kinase assay (Ser/Thr 18 peptide Z-lyte FRET). The note with it: DYRK1A kinase activity, Z-lyte Ser/Thr 18 peptide, 15 μM ATP; method text calls the value IC50; read-out: EC50 (the source's name). It counts as biochemical. In outline: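 Z-lyte FRET: recombinant DYRK1A 0.25 μg/mL, ATP 15 μM, Ser/Thr 18 peptide 4 μM, with compound (11-point 1:3, 10 μM top) 1 h at room temperature, then development reagent 1 h. Coumarin/fluorescein emission ratio converted to % phosphorylation; IC50 by non-linear regression, duplicates.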

Consider `COc1nc(N[C@@H]2CCN(C)CC2(F)F)nn2ccc(-c3ccc4nccnc4c3)c12` [Compound 375, (R)—N-(3,3-Difluoro-1-methylpiperidin-4-yl)-4-methoxy-5-(quinoxalin-6-yl)pyrrolo[2,1-f][1,2,4]triazin-2-amine], for which the IC50 worked out at 3.3 nM.

Consider `COc1nc(N[C@H]2C[C@](C)(NC(C)=O)C2)nn2ccc(-c3cc(F)c4nnn(CC(F)F)c4c3)c12` [Compound 806, N-((1r,3r)-3-((5-(1-(2,2-Difluoroethyl)-4-fluoro-1H-benzo[d][1,2,3]triazol-6-yl)-4-methoxypyrrolo[2,1-f][1,2,4]triazin-2-yl)amino)-1-methylcyclobutyl)acetamide], for which the IC50 was 1.4 nM.

On to `COc1nc(N[C@H]2C[C@](C)(C(=O)NC3CC3)C2)nn2ccc(-c3ccc4nc(C)n(CC(F)F)c4c3)c12` [Compound 503, trans-N-Cyclopropyl-3-((5-(1-(2,2-difluoroethyl)-2-methyl-1H-benzo[d]imidazol-6-yl)-4-methoxypyrrolo[2,1-f][1,2,4]triazin-2-yl)amino)-1-methylcyclobutane-1-carboxamide], for which the IC50 stood at 2.3 nM.

Turning to `COc1nc(N[C@H]2CC[C@](C)(O)CC2)nn2ccc(-c3cc(F)c4nc(C)n(CC(F)F)c4c3)c12` [Compound 151, trans-4-((5-(1-(2,2-difluoroethyl)-4-fluoro-2-methyl-1H-benzo[d]imidazol-6-yl)-4-methoxypyrrolo[2,1-f][1,2,4]triazin-2-yl)amino)-1-methylcyclohexan-1-ol], the IC50 was 1.7 nM.

Take `COc1nc(N[C@H]2CCN(C(C)=O)C[C@H]2F)nn2ccc(-c3cc(F)c4nc(C)n(C(C)C)c4c3)c12` [Compound 544, 1-((3R,4S)-3-Fluoro-4-((5-(4-fluoro-1-isopropyl-2-methyl-1H-benzo[d]imidazol-6-yl)-4-methoxypyrrolo[2,1-f][1,2,4]triazin-2-yl)amino)piperidin-1-yl)ethan-1-one]: the IC50 is 0.9 nM.

On to `CCO[C@H]1C[C@@H](Nc2nc(OC)c3c(-c4ccc5ncnn5c4)ccn3n2)C1` [Compound 555, 5-([1,2,4]Triazolo[1,5-a]pyridin-6-yl)-N-(cis-3-ethoxycyclobutyl)-4-methoxypyrrolo[2,1-f][1,2,4]triazin-2-amine], for which the IC50 is 5 nM.

For `COc1nc(N[C@H]2C[C@@](C)(N)C2)nn2ccc(-c3ccn4nccc4c3)c12` [Compound 95, cis-N1-(4-Methoxy-5-(pyrazolo[1,5-a]pyridin-5-yl)pyrrolo[2,1-f][1,2,4]triazin-2-yl)-3-methylcyclobutane-1,3-diamine], the IC50 stood at 8.2 nM.

In the case of `COc1nc(N[C@H]2CCN(C(C)=O)C[C@H]2F)nn2ccc(-c3cc(F)c4nnn(CC(F)F)c4c3)c12` [Compound 816, 1-((3R,4S)-4-((5-(1-(2,2-Difluoroethyl)-4-fluoro-1H-benzo[d][1,2,3]triazol-6-yl)-4-methoxypyrrolo[2,1-f][1,2,4]triazin-2-yl)amino)-3-fluoropiperidin-1-yl)ethan-1-one], the IC50 stood at 2.8 nM.

Turning to `COc1nc(NC23CC(NC(C)=O)(C2)C3)nn2ccc(-c3ccc4nccnc4c3)c12` [Compound 382, N-(3-((4-Methoxy-5-(quinoxalin-6-yl)pyrrolo[2,1-f][1,2,4]triazin-2-yl)amino)bicyclo[1.1.1]pentan-1-yl)acetamide], the IC50 is 1.8 nM.

Turning to `CCOc1nc(NC2CC3(C2)CN(C(C)=O)C3)nn2ccc(-c3ccn4nccc4c3)c12` [Compound 99, 1-(6-((4-Ethoxy-5-(pyrazolo[1,5-a]pyridin-5-yl)pyrrolo[2,1-f][1,2,4]triazin-2-yl)amino)-2-azaspiro[3.3]heptan-2-yl)ethan-1-one], the IC50 came out at 4.5 nM.

Consider `COc1nc(N[C@H](C)C2COC2)nn2ccc(-c3cnc4nccn4c3)c12` [Compound 927, (R)-5-(Imidazo[1,2-a]pyrimidin-6-yl)-4-methoxy-N-(1-(oxetan-3-yl)ethyl)pyrrolo[2,1-f][1,2,4]triazin-2-amine], for which the IC50 was 1.2 nM.

Regarding `COc1nc(N[C@H]2C[C@](C)(C(=O)N(C)C)C2)nn2ccc(-c3ccc4nnn(C)c4c3)c12` [Compound 212, trans-3-((4-Methoxy-5-(1-methyl-1H-benzo[d][1,2,3]triazol-6-yl)pyrrolo[2,1-f][1,2,4]triazin-2-yl)amino)-N,N,1-trimethylcyclobutane-1-carboxamide], the IC50 worked out at 1.4 nM.

With `COc1nc(N[C@@H]2CN(C(C)=O)C[C@@H]2F)nn2ccc(-c3cnc4nccn4c3)c12` [Compound 264, 1-((3S,4R)-3-Fluoro-4-((5-(imidazo[1,2-a]pyrimidin-6-yl)-4-methoxypyrrolo[2,1-f][1,2,4]triazin-2-yl)amino)pyrrolidin-1-yl)ethan-1-one], the IC50 was found to be 3.5 nM.

Regarding `COc1nc(N[C@H]2CC[C@H](OC)CC2)nn2ccc(-c3ccn4nccc4c3)c12` [Compound 10, 4-Methoxy-N-(trans-4-methoxycyclohexyl)-5-(pyrazolo[1,5-a]pyridin-5-yl)pyrrolo[2,1-f][1,2,4]triazin-2-amine], the IC50 was 93.8 nM.

As to `COc1nc(N[C@H](C)C2CC2)nn2ccc(-c3cnc4nccn4c3)c12` [Compound 231, (R)—N-(1-Cyclopropylethyl)-5-(imidazo[1,2-a]pyrimidin-6-yl)-4-methoxypyrrolo[2,1-f][1,2,4]triazin-2-amine], the IC50 was 7.2 nM.

In the case of `COc1nc(N[C@@H]2CCN(C(C)=O)CC2(F)F)nn2ccc(-c3ccc4nccnc4c3)c12` [Compound 1096, (R)-1-(3,3-Difluoro-4-((4-methoxy-5-(quinoxalin-6-yl)pyrrolo[2,1-f][1,2,4]triazin-2-yl)amino)piperidin-1-yl)ethan-1-one], the IC50 came out at 3 nM.

Take `COc1nc(NC2CCN(C3COC3)CC2)nn2ccc(-c3ccc4nccnc4c3)c12` [Compound 365, 4-Methoxy-N-(1-(oxetan-3-yl)piperidin-4-yl)-5-(quinoxalin-6-yl)pyrrolo[2,1-f][1,2,4]triazin-2-amine]: the IC50 was 2.8 nM.

In the case of `CN1C[C@H](F)[C@H](Nc2nc(O)c3c(-c4cnc5nccn5c4)ccn3n2)C1` [Compound 261, 2-(((3R,4S)-4-Fluoro-1-methylpyrrolidin-3-yl)amino)-5-(imidazo[1,2-a]pyrimidin-6-yl)pyrrolo[2,1-f][1,2,4]triazin-4-ol], the IC50 turned out to be 153 nM.

In the case of `COc1nc(NC2CC3(COC3)C2)nn2ccc(-c3ccc4nccn4c3)c12` [Compound 74, 5-(Imidazo[1,2-a]pyridin-6-yl)-4-methoxy-N-(2-oxaspiro[3.3]heptan-6-yl)pyrrolo[2,1-f][1,2,4]triazin-2-amine], the IC50 was determined as 5.2 nM.

`COc1nc(N[C@H]2CC[C@](C)(O)CC2)nn2ccc(-c3cc(F)c4nnn(CC(F)F)c4c3)c12` [Compound 811, (1r,4r)-4-((5-(1-(2,2-Difluoroethyl)-4-fluoro-1H-benzo[d][1,2,3]triazol-6-yl)-4-methoxypyrrolo[2,1-f][1,2,4]triazin-2-yl)amino)-1-methylcyclohexan-1-ol]: the IC50 is 1.7 nM.

Take `COc1nc(N[C@H]2C[C@](C)(C(=O)NC3CC(F)(F)C3)C2)nn2ccc(-c3ccc4nc(C)n(CC(F)F)c4c3)c12` [Compound 504, trans-N-(3,3-Difluorocyclobutyl)-3-((5-(1-(2,2-difluoroethyl)-2-methyl-1H-benzo[d]imidazol-6-yl)-4-methoxypyrrolo[2,1-f][1,2,4]triazin-2-yl)amino)-1-methylcyclobutane-1-carboxamide]: the IC50 was 1.4 nM.

With `COc1nc(N[C@H]2C[C@@H]3CN(C(C)=O)C[C@@H]3C2)nn2ccc(-c3ccc4nccnc4c3)c12` [Compound 387, 1-((3aR,5s,6aS)-5-((4-Methoxy-5-(quinoxalin-6-yl)pyrrolo[2,1-f][1,2,4]triazin-2-yl)amino)hexahydrocyclopenta[c]pyrrol-2(1H)-yl)ethan-1-one], the IC50 was found to be 0.7 nM.

Take `COc1nc(N[C@H]2C[C@](C)(O)C2)nn2ccc(-c3ccn4nccc4c3)c12` [Compound 8, trans-3-((4-Methoxy-5-(pyrazolo[1,5-a]pyridin-5-yl)pyrrolo[2,1-f][1,2,4]triazin-2-yl)amino)-1-methylcyclobutan-1-ol]: the IC50 came to 0.6 nM.

As to `COc1nc(N[C@H]2CC[C@@H](OC)CC2)nn2ccc(-c3ccn4nccc4c3)c12` [Compound 9, 4-Methoxy-N-(cis-4-methoxycyclohexyl)-5-(pyrazolo[1,5-a]pyridin-5-yl)pyrrolo[2,1-f][1,2,4]triazin-2-amine], the IC50 was 9960 nM.

For the compound `COc1nc(N[C@H]2CC[C@H](NC(C)=O)CC2)nn2ccc(-c3ccn4nccc4c3)c12` [Compound 18, N-(trans-4-((4-Methoxy-5-(pyrazolo[1,5-a]pyridin-5-yl)pyrrolo[2,1-f][1,2,4]triazin-2-yl)amino)cyclohexyl)acetamide], the IC50 was determined as 7.4 nM.

Consider `COc1nc(N[C@@H]2CCN(C)CC2(F)F)nn2ccc(-c3ccc4nc(C)n(CC(F)F)c4c3)c12` [Compound 138, (R)—N-(3,3-Difluoro-1-methylpiperidin-4-yl)-5-(1-(2,2-difluoroethyl)-2-methyl-1H-benzo[d]imidazol-6-yl)-4-methoxypyrrolo[2,1-f][1,2,4]triazin-2-amine], for which the IC50 was determined as 4.3 nM.

For `COc1nc(N[C@@H]2CCN(C3COC3)CC2(F)F)nn2ccc(-c3ccc4nnn(CC(F)(F)F)c4c3)c12` [Compound 922, (R)—N-(3,3-Difluoro-1-(oxetan-3-yl)piperidin-4-yl)-4-methoxy-5-(1-(2,2,2-trifluoroethyl)-1H-benzo[d][1,2,3]triazol-6-yl)pyrrolo[2,1-f][1,2,4]triazin-2-amine], the IC50 is 0.9 nM.

Take `COc1nc(N[C@H]2CC[C@](C)(O)CC2)nn2ccc(-c3ccc4nc(C)nn4c3)c12` [Compound 622, (1r,4r)-4-((4-Methoxy-5-(2-methyl-[1,2,4]triazolo[1,5-a]pyridin-6-yl)pyrrolo[2,1-f][1,2,4]triazin-2-yl)amino)-1-methylcyclohexan-1-ol]: the IC50 was 14.1 nM.

Source of the values: US20240002391A1, “4-ALKOXYPYRROLO[2,1-F][1,2,4]TRIAZINES AND PREPARATION AND USES THEREOF” (BioSplice Therapeutics, Inc., priority 2022, published 2024).
